Experimental data reported in patent US8822446B2, “Pyrrolopyridine inhibitors of kinases” (AbbVie Inc., priority 2010, dated 2014).
pKi: −log10 of the molar value.

Molecular target: T1, Cdc7 (BEV coexpressed huCDC7/DBF4) (Homo sapiens, UniProt O00311)
T1 construct: made in house; host or cells: baculovirus expression vector (BEV) co-expression
Assay: Cdc7 enzyme inhibition assay ([33P]-ATP, biotinylated peptide substrate, FlashPlate)
Assay type: biochemical
Settings: Ki generated from IC50 assuming ATP-competitive inhibition; 1 μM ATP, apparent ATP Km 0.7 μM; 1 hr reaction
Method: This example describes the assays that may be used to identify compounds having kinase activity.
Cdc7 (BEV coexpressed huCDC7/DBF4) is prepared internally. Cdc7 assays are conducted as follows with final concentrations as listed. In 384-well v-bottom polypropylene plates, 6 μL compound (2% DMSO), is mixed with 6 μL of Cdc7 (2 ug/mL), and Jerini peptide substrate A-A11 (biotin-C6linker-[…]) (2 μM), followed by immediate initiation with 6 μL […] (1 μM, 20 mCi/μmol) using a reaction buffer comprising 25 mM HEPES, pH 7.5, 1 mM DTT, 10 mM MgCl2, 100 μM, Na3VO4, 0.075 mg/ml Triton X-100. Reactions are quenched after 1 hr by the addition of 90 μL stop buffer (50 mM EDTA, 2M NaCl).
Table 1 depicts enzyme inhibition data (Ki) for exemplary compounds.

T1 sequence (O00311 whole entry): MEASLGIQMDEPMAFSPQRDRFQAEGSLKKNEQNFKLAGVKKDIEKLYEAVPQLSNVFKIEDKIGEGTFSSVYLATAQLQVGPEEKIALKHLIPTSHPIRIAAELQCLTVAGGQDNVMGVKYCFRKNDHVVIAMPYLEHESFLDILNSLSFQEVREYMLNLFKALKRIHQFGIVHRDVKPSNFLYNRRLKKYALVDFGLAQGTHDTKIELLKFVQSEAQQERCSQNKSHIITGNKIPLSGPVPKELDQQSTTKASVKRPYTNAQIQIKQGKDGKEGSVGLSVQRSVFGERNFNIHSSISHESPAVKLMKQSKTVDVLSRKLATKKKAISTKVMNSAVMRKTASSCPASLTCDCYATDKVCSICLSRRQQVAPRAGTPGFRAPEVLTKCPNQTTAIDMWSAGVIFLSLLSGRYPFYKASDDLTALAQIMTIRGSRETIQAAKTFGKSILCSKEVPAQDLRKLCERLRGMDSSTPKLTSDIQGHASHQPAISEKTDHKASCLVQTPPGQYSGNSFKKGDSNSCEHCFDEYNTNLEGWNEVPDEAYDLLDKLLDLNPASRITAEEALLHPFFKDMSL
T1 sequence (Q9UBU7 whole entry partner): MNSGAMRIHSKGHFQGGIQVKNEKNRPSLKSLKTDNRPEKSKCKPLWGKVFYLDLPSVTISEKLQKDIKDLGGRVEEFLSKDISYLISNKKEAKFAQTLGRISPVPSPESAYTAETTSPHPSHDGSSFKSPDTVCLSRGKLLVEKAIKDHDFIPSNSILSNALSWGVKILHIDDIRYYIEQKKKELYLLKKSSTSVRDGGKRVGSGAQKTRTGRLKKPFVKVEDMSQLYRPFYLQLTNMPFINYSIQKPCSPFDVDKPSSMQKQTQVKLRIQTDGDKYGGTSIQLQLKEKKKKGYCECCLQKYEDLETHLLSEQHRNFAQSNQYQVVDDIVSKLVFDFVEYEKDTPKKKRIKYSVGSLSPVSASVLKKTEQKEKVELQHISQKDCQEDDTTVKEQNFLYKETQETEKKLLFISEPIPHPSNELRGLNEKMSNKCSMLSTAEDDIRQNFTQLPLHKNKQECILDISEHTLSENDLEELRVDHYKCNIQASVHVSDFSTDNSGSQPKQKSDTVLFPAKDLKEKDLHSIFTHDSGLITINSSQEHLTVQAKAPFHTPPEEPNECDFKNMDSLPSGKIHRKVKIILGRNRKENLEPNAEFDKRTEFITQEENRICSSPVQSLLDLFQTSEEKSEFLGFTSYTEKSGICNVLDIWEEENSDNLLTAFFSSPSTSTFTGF

Structure (SMILES)	pKi
O=c1cc(-c2c[nH]c3ncccc23)nc(NC2CCCCC2)[nH]1 [Example 1, 2-(cyclohexylamino)-6-(1H-pyrrolo[2,3-b]pyridin-3-yl)pyrimidin-4(3H)-one]	> 8.00
O=c1cc(-c2c[nH]c3ncccc23)nc(NCc2ccccc2)[nH]1 [Example 2, 2-(benzylamino)-6-(1H-pyrrolo[2,3-b]pyridin-3-yl)pyrimidin-4(3H)-one]	> 8.00
O=c1cc(-c2c[nH]c3ncccc23)nc(Nc2ccccc2)[nH]1 [Example 3, 2-anilino-6-(1H-pyrrolo[2,3-b]pyridin-3-yl)pyrimidin-4(3H)-one]	> 8.00
N[C@H]1CC[C@H](Nc2nc(-c3c[nH]c4ncccc34)cc(=O)[nH]2)CC1 [Example 4, 2-[(trans-4-aminocyclohexyl)amino]-6-(1H-pyrrolo[2,3-b]pyridin-3-yl)pyrimidin-4(3H)-one]	> 8.00
O=c1cc(-c2c[nH]c3ncccc23)nc(NCc2cc(F)cc(F)c2)[nH]1 [Example 5, 2-[(3,5-difluorobenzyl)amino]-6-(1H-pyrrolo[2,3-b]pyridin-3-yl)pyrimidin-4(3H)-one]	> 8.00
O=c1cc(-c2c[nH]c3ncccc23)nc(NC2CCNCC2)[nH]1 [Example 6, 2-(piperidin-4-ylamino)-6-(1H-pyrrolo[2,3-b]pyridin-3-yl)pyrimidin-4(3H)-one]	> 8.00
O=c1cc(-c2c[nH]c3ncccc23)nc(N2CCC(O)CC2)[nH]1 [Example 7, 2-(4-hydroxypiperidin-1-yl)-6-(1H-pyrrolo[2,3-b]pyridin-3-yl)pyrimidin-4(3H)-one]	> 8.00
C[C@H](Nc1nc(-c2c[nH]c3ncccc23)cc(=O)[nH]1)c1ccccc1 [Example 8, 2-{[(1S)-1-phenylethyl]amino}-6-(1H-pyrrolo[2,3-b]pyridin-3-yl)pyrimidin-4(3H)-one]	> 8.00
O=c1cc(-c2c[nH]c3ncccc23)nc(NC2CCOCC2)[nH]1 [Example 9, 6-(1H-pyrrolo[2,3-b]pyridin-3-yl)-2-(tetrahydro-2H-pyran-4-ylamino)pyrimidin-4(3H)-one]	> 8.00
O=c1cc(-c2c[nH]c3ncccc23)nc(NCC2CCCO2)[nH]1 (centres unmarked) [Example 10, 6-(1H-pyrrolo[2,3-b]pyridin-3-yl)-2-[(tetrahydrofuran-2-ylmethyl)amino]pyrimidin-4(3H)-one]	> 8.00
CN(c1nc(-c2c[nH]c3ncccc23)cc(=O)[nH]1)C1CCCCC1 [Example 11, 2-[cyclohexyl(methyl)amino]-6-(1H-pyrrolo[2,3-b]pyridin-3-yl)pyrimidin-4(3H)-one]	> 8.00
C[C@@H](Nc1nc(-c2c[nH]c3ncccc23)cc(=O)[nH]1)c1ccccc1 [Example 12, 2-{[(1R)-1-phenylethyl]amino}-6-(1H-pyrrolo[2,3-b]pyridin-3-yl)pyrimidin-4(3H)-one]	> 8.00
NC1CCCCC1Nc1nc(-c2c[nH]c3ncccc23)cc(=O)[nH]1 (centres unmarked) [Example 13, 2-[(2-aminocyclohexyl)amino]-6-(1H-pyrrolo[2,3-b]pyridin-3-yl)pyrimidin-4(3H)-one]	> 8.00
O=c1cc(-c2c[nH]c3ncccc23)nc(NC2CCCCCC2)[nH]1 [Example 14, 2-(cycloheptylamino)-6-(1H-pyrrolo[2,3-b]pyridin-3-yl)pyrimidin-4(3H)-one]	> 8.00
O=c1cc(-c2c[nH]c3ncccc23)nc(N2CCSCC2)[nH]1 [Example 15, 6-(1H-pyrrolo[2,3-b]pyridin-3-yl)-2-(thiomorpholin-4-yl)pyrimidin-4(3H)-one]	> 8.00
CNCCNc1nc(-c2c[nH]c3ncccc23)cc(=O)[nH]1 [Example 16, 2-{[2-(methylamino)ethyl]amino}-6-(1H-pyrrolo[2,3-b]pyridin-3-yl)pyrimidin-4(3H)-one]	> 8.00
COCCN(CCOC)c1nc(-c2c[nH]c3ncccc23)cc(=O)[nH]1 [Example 17, 2-[bis(2-methoxyethyl)amino]-6-(1H-pyrrolo[2,3-b]pyridin-3-yl)pyrimidin-4(3H)-one]	> 8.00
COCCNc1nc(-c2c[nH]c3ncccc23)cc(=O)[nH]1 [Example 18, 2-[(2-methoxyethyl)amino]-6-(1H-pyrrolo[2,3-b]pyridin-3-yl)pyrimidin-4(3H)-one]	> 8.00
O=c1cc(-c2c[nH]c3ncccc23)nc(NCCO)[nH]1 [Example 19, 2-[(2-hydroxyethyl)amino]-6-(1H-pyrrolo[2,3-b]pyridin-3-yl)pyrimidin-4(3H)-one]	> 8.00
O=c1cc(-c2c[nH]c3ncccc23)nc(NCc2ccccc2C(F)(F)F)[nH]1 [Example 20, 6-(1H-pyrrolo[2,3-b]pyridin-3-yl)-2-{[2-(trifluoromethyl)benzyl]amino}pyrimidin-4(3H)-one]	> 8.00
O=c1cc(-c2c[nH]c3ncccc23)nc(N2CCC(CO)CC2)[nH]1 [Example 21, 2-[4-(hydroxymethyl)piperidin-1-yl]-6-(1H-pyrrolo[2,3-b]pyridin-3-yl)pyrimidin-4(3H)-one]	> 8.00

Structure (SMILES)	pKi
O=c1cc(-c2c[nH]c3ncccc23)nc(NCCCN2CCOCC2)[nH]1 [Example 22, 2-{[3-(morpholin-4-yl)propyl]amino}-6-(1H-pyrrolo[2,3-b]pyridin-3-yl)pyrimidin-4(3H)-one]	> 8.00
O=c1cc(-c2c[nH]c3ncccc23)nc(NCc2cccc(O)c2)[nH]1 [Example 23, 2-[(3-hydroxybenzyl)amino]-6-(1H-pyrrolo[2,3-b]pyridin-3-yl)pyrimidin-4(3H)-one]	> 8.00
O=c1cc(-c2c[nH]c3ncccc23)nc(N2CCOCC2)[nH]1 [Example 24, 2-(morpholin-4-yl)-6-(1H-pyrrolo[2,3-b]pyridin-3-yl)pyrimidin-4(3H)-one]	> 8.00
O=C(O)C1CCN(c2nc(-c3c[nH]c4ncccc34)cc(=O)[nH]2)CC1 [Example 25, 1-[6-oxo-4-(1H-pyrrolo[2,3-b]pyridin-3-yl)-1,6-dihydropyrimidin-2-yl]piperidine-4-carboxylic acid]	> 8.00
O=c1cc(-c2c[nH]c3ncccc23)nc(NC2CCCC2)[nH]1 [Example 26, 2-(cyclopentylamino)-6-(1H-pyrrolo[2,3-b]pyridin-3-yl)pyrimidin-4(3H)-one]	> 8.00
COC1CCN(c2nc(-c3c[nH]c4ncccc34)cc(=O)[nH]2)CC1 [Example 27, 2-(4-methoxypiperidin-1-yl)-6-(1H-pyrrolo[2,3-b]pyridin-3-yl)pyrimidin-4(3H)-one]	> 8.00
O=c1cc(-c2c[nH]c3ncccc23)nc(NC2CCCCC2O)[nH]1 (centres unmarked) [Example 28, 2-[(2-hydroxycyclohexyl)amino]-6-(1H-pyrrolo[2,3-b]pyridin-3-yl)pyrimidin-4(3H)-one]	> 8.00
CN1CCC(Nc2nc(-c3c[nH]c4ncccc34)cc(=O)[nH]2)CC1 [Example 29, 2-[(1-methylpiperidin-4-yl)amino]-6-(1H-pyrrolo[2,3-b]pyridin-3-yl)pyrimidin-4(3H)-one]	> 8.00
O=c1cc(-c2c[nH]c3ncccc23)nc(NCCCn2ccnc2)[nH]1 [Example 30, 2-{[3-(1H-imidazol-1-yl)propyl]amino}-6-(1H-pyrrolo[2,3-b]pyridin-3-yl)pyrimidin-4(3H)-one]	> 8.00
NCCOCCOCCNc1nc(-c2c[nH]c3ncccc23)cc(=O)[nH]1 [Example 31, 2-({2-[2-(2-aminoethoxy)ethoxy]ethyl}amino)-6-(1H-pyrrolo[2,3-b]pyridin-3-yl)pyrimidin-4(3H)-one]	> 8.00
O=c1cc(-c2c[nH]c3ncccc23)nc(-c2ccccc2)[nH]1 [Example 32, 2-phenyl-6-(1H-pyrrolo[2,3-b]pyridin-3-yl)pyrimidin-4(3H)-one]	> 8.00
Cc1ccccc1-c1nc(-c2c[nH]c3ncccc23)cc(=O)[nH]1 [Example 33, 2-(2-methylphenyl)-6-(1H-pyrrolo[2,3-b]pyridin-3-yl)pyrimidin-4(3H)-one]	> 8.00
O=c1cc(-c2c[nH]c3ncccc23)cc(-c2ccccc2)[nH]1 [Example 34, 6-phenyl-4-(1H-pyrrolo[2,3-b]pyridin-3-yl)pyridin-2(1H)-one]	> 8.00
O=c1cc(-c2c[nH]c3ncccc23)cc(-c2cccc(OC(F)(F)F)c2)[nH]1 [Example 35, 4-(1H-pyrrolo[2,3-b]pyridin-3-yl)-6-[3-(trifluoromethoxy)phenyl]pyridin-2(1H)-one]	> 8.00
O=c1cc(-c2c[nH]c3ncccc23)cc(-c2cccc(C(F)(F)F)c2)[nH]1 [Example 36, 4-(1H-pyrrolo[2,3-b]pyridin-3-yl)-6-[3-(trifluoromethyl)phenyl]pyridin-2(1H)-one]	> 8.00
Cc1cccc(-c2cc(-c3c[nH]c4ncccc34)cc(=O)[nH]2)c1C [Example 37, 6-(2,3-dimethylphenyl)-4-(1H-pyrrolo[2,3-b]pyridin-3-yl)pyridin-2(1H)-one]	> 8.00
Cc1ccccc1-c1cc(-c2c[nH]c3ncccc23)cc(=O)[nH]1 [Example 38, 6-(2-methylphenyl)-4-(1H-pyrrolo[2,3-b]pyridin-3-yl)pyridin-2(1H)-one]	> 8.00
O=c1cc(-c2c[nH]c3ncccc23)cc(-c2ccc3c(c2)OCO3)[nH]1 [Example 39, 6-(1,3-benzodioxol-5-yl)-4-(1H-pyrrolo[2,3-b]pyridin-3-yl)pyridin-2(1H)-one]	> 8.00
O=c1cc(-c2c[nH]c3ncccc23)cc(-c2ccsc2)[nH]1 [Example 40, 4-(1H-pyrrolo[2,3-b]pyridin-3-yl)-6-(3-thienyl)pyridin-2(1H)-one]	> 8.00
O=c1cc(-c2c[nH]c3ncccc23)cc(-c2ccc3ccccc3c2)[nH]1 [Example 41, 6-(2-naphthyl)-4-(1H-pyrrolo[2,3-b]pyridin-3-yl)pyridin-2(1H)-one]	> 8.00
